Experimental data from PubChem BioAssay (NCI).
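Values below derive from 48-hour exposures of cells grown in 96-well plates, with endpoints linearly interpolated between the two concentrations bracketing the appropriate inhibition level. GI50 marks 50% less growth. TGI is the concentration that stops growth completely.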

Experiments:
Assay in all cases: growth of human tumour cells (NCI), 48 h
[1] = tested on: OVCAR-3 ovarian
[2] = tested on: KM12 colon
[3] = tested on: A498 renal
[4] = tested on: MDA-MB-231 breast
[5] = tested on: OVCAR-5 ovarian
[6] = tested on: HOP-62 NSCLC
[7] = tested on: NCI-H460 lung
[8] = tested on: UACC-257 melanoma
[9] = tested on: COLO 205 colon
[10] = tested on: HCT-116 colon
[11] = tested on: NCI/ADR-RES ovarian
[12] = tested on: SW-620 colon
[13] = tested on: M14 melanoma
[14] = tested on: A549 NSCLC
[15] = tested on: MALME-3M melanoma
[16] = tested on: DU-145 prostate
[17] = tested on: SNB-75 CNS
[18] = tested on: HL-60(TB) leukemia
[19] = tested on: SK-MEL-2 melanoma
[20] = tested on: OVCAR-4 ovarian
[21] = tested on: SN12C renal
[22] = tested on: RXF 393 renal
[23] = tested on: OVCAR-8 ovarian
[24] = tested on: MCF7 breast
[25] = tested on: SK-MEL-28 melanoma
[26] = tested on: MDA-MB-435
[27] = tested on: ACHN renal
[28] = tested on: PC-3 prostate
[29] = tested on: EKVX NSCLC
[30] = tested on: U251 CNS
[31] = tested on: SK-OV-3 ovarian
[32] = tested on: NCI-H522 lung
[33] = tested on: SR leukemia
[34] = tested on: SF-295 CNS
[35] = tested on: CAKI-1 renal
[36] = tested on: SNB-19 CNS
[37] = tested on: HT29 colon
[38] = tested on: SF-539 CNS
[39] = tested on: HS 578T breast
[40] = tested on: T-47D breast
[41] = tested on: MOLT-4 leukemia
[42] = tested on: NCI-H23 lung
[43] = tested on: HOP-92 NSCLC
[44] = tested on: SK-MEL-5 melanoma
[45] = tested on: UACC-62 melanoma
[46] = tested on: HCT-15 colon
[47] = tested on: TK-10 renal
[48] = tested on: BT-549 breast
[49] = tested on: NCI-H226 lung
[50] = tested on: LOX IMVI melanoma
[51] = tested on: IGROV1 ovarian
[52] = tested on: SF-268 CNS

COc1ccc2c(c1)CCC1C2CCC2(C)C1CC[C@@]2(O)CNC(=O)/C=C/c1ccc(O)c(O)c1 (some centres undefined) was tested, and the GI50 [1] was 2.56 µM, the TGI [1] was 67.3 µM and the GI50 [2] was 2.44 µM. The TGI [2] was 7.82 µM, the GI50 [3] was 18.8 µM and the TGI [3] was 39.8 µM. For the same compound, the GI50 [4] was 2.43 µM, the TGI [4] was 10 µM and the GI50 [5] was 16.5 µM. For the same compound, the TGI [5] was > 100 µM, the GI50 [6] was 5.59 µM and the TGI [6] was 79.1 µM. For the same compound, the GI50 [7] was 2.69 µM, the TGI [7] was > 100 µM and the GI50 [8] was 18.5 µM. The TGI [8] was 35.7 µM, the GI50 [9] was 1.81 µM and the TGI [9] was 5.75 µM. For the same compound, the GI50 [10] was 2.95 µM, the TGI [10] was 19.2 µM and the GI50 [11] was 2.12 µM. The TGI [11] was 5.83 µM, the GI50 [12] was 4.07 µM and the TGI [12] was > 100 µM. For the same compound, the GI50 [13] was 2.59 µM, the TGI [13] was 7.42 µM and the GI50 [14] was 3.95 µM. For the same compound, the TGI [14] was 29.3 µM, the GI50 [15] was 3.56 µM and the TGI [15] was 9.6 µM. The GI50 [16] was 3.11 µM, the TGI [16] was > 100 µM and the GI50 [17] was 2.65 µM. For the same compound, the TGI [17] was 7.18 µM, the GI50 [18] was 0.595 µM and the TGI [18] was 3.97 µM. It also gave a GI50 [19] of 5.59 µM, a TGI [19] of 29.7 µM and a GI50 [20] of 3.02 µM. For the same compound, the TGI [20] was > 100 µM, the GI50 [21] was 2.57 µM and the TGI [21] was 8.84 µM. It also gave a GI50 [22] of 3.98 µM, a TGI [22] of 16.7 µM and a GI50 [23] of 4.13 µM. The TGI [23] was > 100 µM, the GI50 [24] was 3.66 µM and the TGI [24] was > 100 µM. For the same compound, the GI50 [25] was 4.33 µM, the TGI [25] was 31.8 µM and the GI50 [26] was 2.86 µM. It also gave a TGI [26] of 19.2 µM, a GI50 [27] of 2.19 µM and a TGI [27] of 7.16 µM. The GI50 [28] was 1.92 µM, the TGI [28] was 10.2 µM and the GI50 [29] was 4.01 µM. For the same compound, the TGI [29] was > 100 µM, the GI50 [30] was 1.65 µM and the TGI [30] was 4.41 µM. The GI50 [31] was 14.8 µM, the TGI [31] was > 100 µM and the GI50 [32] was 0.503 µM. For the same compound, the TGI [32] was 2.19 µM, the GI50 [33] was 20.1 µM and the TGI [33] was 59.7 µM. For the same compound, the GI50 [34] was 3.54 µM, the TGI [34] was > 100 µM and the GI50 [35] was 2.68 µM. For the same compound, the TGI [35] was > 100 µM, the GI50 [36] was 3.31 µM and the TGI [36] was > 100 µM. It also gave a GI50 [37] of 1.93 µM, a TGI [37] of 4.78 µM and a GI50 [38] of 2.08 µM. The TGI [38] was 6.75 µM, the GI50 [39] was 7.62 µM and the TGI [39] was > 100 µM. For the same compound, the GI50 [40] was 3.15 µM, the TGI [40] was > 100 µM and the GI50 [41] was 0.382 µM. It also gave a TGI [41] of 2.28 µM, a GI50 [42] of 2.96 µM and a TGI [42] of 9.14 µM. It also gave a GI50 [43] of 2.23 µM, a TGI [43] of 14.7 µM and a GI50 [44] of 3.41 µM. It also gave a TGI [44] of 9.6 µM, a GI50 [45] of 2.24 µM and a TGI [45] of 5.63 µM. The GI50 [46] was 1.49 µM, the TGI [46] was 4.99 µM and the GI50 [47] was 2.52 µM. The TGI [47] was 9.81 µM, the GI50 [48] was 3.95 µM and the TGI [48] was > 100 µM. It also gave a GI50 [49] of 9.76 µM, a TGI [49] of 35.3 µM and a GI50 [50] of 1.58 µM. The TGI [50] was 5.57 µM, the GI50 [51] was 0.937 µM and the TGI [51] was 3.37 µM. For the same compound, the GI50 [52] was 2.97 µM and the TGI [52] was > 100 µM.
